Experimental data reported in patent US11446298B2, “Pyrimidine derivatives” (Idorsia Pharmaceuticals Ltd, priority 2017, dated 2022).
pIC50: −log10 of the molar value.

Tests used:
Type in all cases: cell-based
EP2 = target: T1, EP2 (Homo sapiens, UniProt P43116); test: hEP2 cAMP Assay (SF295 glioblastoma cells, HTRF cAMP, PGE2 75 nM); conditions: antagonistic activity, PGE2 75 nM (EC80)
T1 construct: SF295 glioblastoma cells express high endogenous EP2 and no EP4; host or cells: SF295 glioblastoma cells
T1 sequence (P43116 whole entry): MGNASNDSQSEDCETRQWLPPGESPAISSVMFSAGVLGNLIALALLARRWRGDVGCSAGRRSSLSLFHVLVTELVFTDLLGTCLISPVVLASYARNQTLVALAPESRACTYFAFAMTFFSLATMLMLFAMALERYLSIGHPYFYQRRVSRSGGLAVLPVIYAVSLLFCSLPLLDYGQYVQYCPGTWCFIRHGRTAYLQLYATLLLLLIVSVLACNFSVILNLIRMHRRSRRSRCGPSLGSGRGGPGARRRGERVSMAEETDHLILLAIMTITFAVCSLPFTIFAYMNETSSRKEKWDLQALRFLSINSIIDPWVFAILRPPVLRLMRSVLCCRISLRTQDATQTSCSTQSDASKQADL
Summary of the method: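 IC50 values derive from duplicate-point curves of percent cAMP relative to DMSO, read by HTRF (665/620 nm) against a cAMP calibrator. Compounds (30 μM to 0.01 nM ranges) were given 45 min at room temperature before 30 min with 75 nM PGE2, in EP2-only SF295 cells with 2 mM IBMX.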

PTGER4 (EP4) = target: T2, PTGER4 (EP4) (Homo sapiens, UniProt P35408); test: hEP4 b-Arrestin Assay (PathHunter HEK 293 PTGER4 b-arrestin cells, PGE2 20 nM); conditions: antagonistic activity, beta-arrestin assay, HEK 293 PTGER4 cells, PGE2 20 nM (EC80); read-out: hEP4 b-arr IC50
T2 construct: host or cells: HEK 293 (PathHunter, stably transfected)
T2 sequence (P35408 whole entry): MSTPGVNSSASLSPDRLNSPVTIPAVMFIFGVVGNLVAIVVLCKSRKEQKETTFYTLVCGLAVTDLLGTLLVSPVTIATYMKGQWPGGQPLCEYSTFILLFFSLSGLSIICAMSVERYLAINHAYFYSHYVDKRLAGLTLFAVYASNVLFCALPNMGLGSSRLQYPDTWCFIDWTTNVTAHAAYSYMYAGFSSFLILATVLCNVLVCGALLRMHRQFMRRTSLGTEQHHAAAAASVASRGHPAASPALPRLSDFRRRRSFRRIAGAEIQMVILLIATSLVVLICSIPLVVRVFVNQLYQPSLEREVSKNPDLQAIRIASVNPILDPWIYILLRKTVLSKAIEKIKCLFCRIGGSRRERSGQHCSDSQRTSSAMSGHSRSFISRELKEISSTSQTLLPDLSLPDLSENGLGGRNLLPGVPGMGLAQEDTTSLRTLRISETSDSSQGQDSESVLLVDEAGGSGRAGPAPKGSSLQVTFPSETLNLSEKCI
Summary of the method: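 PathHunter HEK 293 EP4 b-arrestin enzyme-complementation cells preincubated 15 min at 37° C with compound (10 μM-2 nM or 1 μM-0.2 nM), then stimulated 120 min with 20 nM PGE2 (EC80). Chemiluminescence read; IC50 from duplicate % activity vs DMSO, one-site fit, averaged over repeats.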

PTGER2 (EP2) = target: T3, PTGER2 (EP2) (Homo sapiens, UniProt P43116); test: hEP2 b-Arrestin Assay (PathHunter HEK 293 PTGER2 b-arrestin cells, PGE2 5 μM); conditions: antagonistic activity, beta-arrestin assay, HEK 293 PTGER2 cells, PGE2 5 μM (EC80); read-out: hEP2 b-arr IC50
T3 construct: host or cells: HEK 293 (PathHunter, stably transfected)
T3 sequence (P43116 whole entry): as the sequence (P43116 whole entry) above
Summary of the method: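 PathHunter enzyme-fragment complementation in HEK 293 cells: compounds (10 μM-2 nM or 1 μM-0.2 nM) pre-incubated 15 min at 37 °C, then 5 μM PGE2 (EC80) for 120 min at 37 °C. Chemiluminescence read after 1 h detection; IC50 from duplicate dose-response fits, means of repeats.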

EP4 = target: T4, EP4 (Homo sapiens, UniProt P35408); test: hEP4 cAMP Assay (BT549 breast cancer cells, HTRF cAMP, PGE2 6 nM); conditions: antagonistic activity, PGE2 6 nM (EC80)
T4 construct: BT549 breast cancer cells, express high endogenous EP4 levels and very low EP2 levels; host or cells: BT549 breast cancer cells
T4 sequence (P35408 whole entry): as the sequence (P35408 whole entry) above
Summary of the method: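 BT549 cells (endogenous EP4, very low EP2) in HBSS/20 mM HEPES/0.2% BSA/2 mM IBMX, pre-incubated 45 min RT with compound, then stimulated 30 min RT with PGE2 6 nM (EC80). cAMP read by HTRF competitive immunoassay (665/620 nm), converted via calibrator to % of DMSO control; IC50 from duplicate dose-response curves.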

pIC50 (EP2)	pIC50 (PTGER4 (EP4))	pIC50 (PTGER2 (EP2))	pIC50 (EP4)	SMILES
7.14	8.40	7.21	7.77	CCOc1cc(-c2cc(NCCc3ccc(OC)c4ccccc34)ncn2)sc1-c1noc(=O)[nH]1 [Example 141, 3-(3-Ethoxy-5-{6-[2-(4-methoxy-naphthalen-1-yl)-ethylamino]-pyrimidin-4-yl}-thiophen-2-yl)-[1,2,4]oxadiazol-5(4H)-one]
7.06	6.83	7.17	6.89	CSc1cc(-c2cc(NCCc3ccc(Br)c4ccccc34)ncn2)ccc1C(=O)O [Example 171, 4-{6-[2-(4-Bromo-naphthalen-1-yl)-ethylamino]-pyrimidin-4-yl}-2-methylsulfanyl-benzoic acid]
7.62	7.54	8.10	7.54	CCOc1cc(-c2cc(NCCc3c(OC)ccc4ccccc34)ncn2)ccc1-c1nnn[nH]1 [Example 125, {6-[3-Ethoxy-4-(1H-tetrazol-5-yl)-phenyl]-pyrimidin-4-yl}-[2-(2-methoxy-naphthalen-1-yl)-ethyl]amine]
6.87	6.79	6.62	6.83	CCOc1cc(-c2cc(NCCc3cccc4c(C)c(C)n(C)c34)ncn2)sc1C(=O)O [Example 29, 3-Ethoxy-5-{6-[2-(1,2,3-trimethyl-1H-indol-7-yl)-ethylamino]-pyrimidin-4-yl}-thiophene-2-carboxylic acid]
8.40	7.29	8.10	7.68	CCOc1cc(-c2cc(NCCc3c(F)ccc4ccccc34)ncn2)sc1C(=O)O [Example 95, 3-Ethoxy-5-{6-[2-(2-fluoro-naphthalen-1-yl)-ethylamino]-pyrimidin-4-yl}-thiophene-2-carboxylic acid]
7.80	7.11	7.49	7.21	CCOc1cc(-c2cc(NCCc3ccc(F)c4ccccc34)ncn2)sc1C(=O)O [Example 21, 3-Ethoxy-5-{6-[2-(4-fluoro-naphthalen-1-yl)-ethylamino]-pyrimidin-4-yl}-thiophene-2-carboxylic acid]
7.52	6.37	6.94	6.69	COc1ccc2ncccc2c1CCNc1cc(-c2cc(C(F)(F)F)c(C(=O)O)s2)ncn1 [Example 81, 5-{6-[2-(6-Methoxy-quinolin-5-yl)-ethylamino]-pyrimidin-4-yl}-3-trifluoromethyl-thiophene-2-carboxylic acid]
7.64	7.08	6.94	7.21	CCOc1cc(-c2cc(NCCc3c(OC(C)C)ccc4ccccc34)ncn2)sc1C(=O)O [Example 30, 3-Ethoxy-5-{6-[2-(2-isopropoxy-naphthalen-1-yl)-ethylamino]-pyrimidin-4-yl}-thiophene-2-carboxylic acid]
7.51	7.82	7.49	7.46	CCOc1cc(-c2cc(NCCc3cc(OC)cc4ccccc34)ncn2)sc1C(=O)O [Example 42, 3-Ethoxy-5-{6-[2-(3-methoxy-naphthalen-1-yl)-ethylamino]-pyrimidin-4-yl}-thiophene-2-carboxylic acid]
8.40	6.75	8.30	7.33	CCOc1cc(-c2cc(NCCc3c(C)ccc4ccccc34)ncn2)sc1C(=O)O [Example 1, 3-Ethoxy-5-{6-[2-(2-methyl-naphthalen-1-yl)-ethylamino]-pyrimidin-4-yl}-thiophene-2-carboxylic acid]
7.10	7.32	7.11	7.18	CCOc1cc(-c2cc(NCCc3ccc(C#N)c4ccccc34)ncn2)sc1C(=O)O [Example 69, 5-{6-[2-(4-Cyano-naphthalen-1-yl)-ethylamino]-pyrimidin-4-yl}-3-ethoxy-thiophene-2-carboxylic acid]
6.72	5.85	6.70	6.25	CCOc1cc(-c2cc(NCCc3cccc4nc(C)sc34)ncn2)sc1C(=O)O [Example 31, 3-Ethoxy-5-{6-[2-(2-methyl-benzothiazol-7-yl)-ethylamino]-pyrimidin-4-yl}-thiophene-2-carboxylic acid]
7.11	7.77	7.55	7.62	CCOc1cc(-c2cc(NCCc3c(OC)c(OC)cc4ccccc34)ncn2)sc1C(=O)O [Example 14, 5-{6-[2-(2,3-Dimethoxy-naphthalen-1-yl)-ethylamino]-pyrimidin-4-yl}-3-ethoxy-thiophene-2-carboxylic acid]
6.68	6.71	6.85	6.74	CCOc1cc(-c2cc(NCCc3ccc(Br)c4ccccc34)ncn2)ccc1C(=O)O [Example 182, 4-{6-[2-(4-Bromo-naphthalen-1-yl)-ethylamino]-pyrimidin-4-yl}-2-ethoxy-benzoic acid]
7.15	7.70	7.52	7.40	CCOc1cc(-c2cc(NCCc3cccc4cnccc34)ncn2)sc1-c1noc(=O)[nH]1 [Example 144, 3-{3-Ethoxy-5-[6-(2-isoquinolin-5-yl-ethylamino)-pyrimidin-4-yl]-thiophen-2-yl}-[1,2,4]oxadiazol-5(4H)-one]
7.30	6.41	7.09	7.00	CCOc1cc(-c2cc(NCCc3cccc4[nH]ccc34)ncn2)sc1C(=O)O [Example 39, 3-Ethoxy-5-{6-[2-(1H-indol-4-yl)-ethylamino]-pyrimidin-4-yl}-thiophene-2-carboxylic acid]
7.11	6.93	6.67	7.06	CCOc1cc(-c2cc(NCCc3cccc4cc(C)oc34)ncn2)sc1C(=O)O [Example 74, 3-Ethoxy-5-{6-[2-(2-methyl-benzofuran-7-yl)-ethylamino]-pyrimidin-4-yl}-thiophene-2-carboxylic acid]
8.00	7.72	8.00	7.14	CCOc1cc(-c2cc(NCCc3c(OC(F)F)ccc4ccccc34)ncn2)sc1C(=O)O [Example 32, 5-{6-[2-(2-Difluoromethoxy-naphthalen-1-yl)-ethylamino]-pyrimidin-4-yl}-3-ethoxy-thiophene-2-carboxylic acid]
7.43	7.29	7.44	7.38	CCOc1cc(-c2cc(NCCc3c(OC)ccc4c3OCO4)ncn2)sc1C(=O)O [Example 44, 3-Ethoxy-5-{6-[2-(5-methoxy-benzo[1,3]dioxol-4-yl)-ethylamino]-pyrimidin-4-yl}-thiophene-2-carboxylic acid]

SMILES	pIC50 (EP2)	pIC50 (PTGER4 (EP4))	pIC50 (PTGER2 (EP2))	pIC50 (EP4)
COc1ccc2ccccc2c1CCNc1cc(-c2ccc(C(=O)O)c(OC3CCC3)c2)ncn1 [Example 5, 2-Cyclobutoxy-4-{6-[2-(2-methoxy-naphthalen-1-yl)-ethylamino]-pyrimidin-4-yl}-benzoic acid]	7.62	6.74	7.60	6.69
CCOc1ccc2ccccc2c1CCNc1cc(-c2ccc(C(=O)O)c(OC3CCC3)c2)ncn1 [Example 26, 2-Cyclobutoxy-4-{6-[2-(2-ethoxy-naphthalen-1-yl)-ethylamino]-pyrimidin-4-yl}-benzoic acid]	7.96	6.41	8.00	6.25
